Data published in PubChem BioAssay (NCI).
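Results reflect a 48-hour exposure of cells in 96-well plates to compound at five concentrations. The concentration for full growth arrest is given as TGI.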

Columns and labels:
Assay in all cases: growth of human tumour cells (NCI), 48 h
[1] = test system: SW-620 colon
[2] = test system: ACHN renal
[3] = test system: RPMI-8226 leukemia
[4] = test system: NCI-H460 lung
[5] = test system: MOLT-4 leukemia
[6] = test system: SK-MEL-2 melanoma
[7] = test system: RXF-631 renal
[8] = test system: CAKI-1 renal
[9] = test system: COLO 205 colon
[10] = test system: OVCAR-5 ovarian
[11] = test system: HCC-2998 colon
[12] = test system: SF-295 CNS
[13] = test system: KM12 colon
[14] = test system: SN12C renal
[15] = test system: CCRF-CEM leukemia
[16] = test system: NCI-H23 lung
[17] = test system: A549 NSCLC
[18] = test system: A498 renal
[19] = test system: NCI-H226 lung
[20] = test system: SK-OV-3 ovarian
[21] = test system: SK-MEL-5 melanoma
[22] = test system: TK-10 renal
[23] = test system: M19-MEL melanoma
[24] = test system: KM20L2 colon
[25] = test system: UO-31 renal
[26] = test system: NCI-H522 lung
[27] = test system: LXFL 529 NSCLC
[28] = test system: OVCAR-4 ovarian
[29] = test system: SK-MEL-28 melanoma
[30] = test system: SNB-19 CNS
[31] = test system: HOP-18 NSCLC
[32] = test system: HCT-15 colon
[33] = test system: IGROV1 ovarian
[34] = test system: EKVX NSCLC
[35] = test system: DLD-1 colon
[36] = test system: SNB-75 CNS
[37] = test system: SF-539 CNS
[38] = test system: K-562 leukemia
[39] = test system: UACC-62 melanoma
[40] = test system: U251 CNS
[41] = test system: SF-268 CNS
[42] = test system: DMS 114 small cell lung
[43] = test system: 786-0 renal
[44] = test system: DMS 273 small cell lung
[45] = test system: HOP-92 NSCLC
[46] = test system: HL-60(TB) leukemia
[47] = test system: M14 melanoma
[48] = test system: OVCAR-3 ovarian
[49] = test system: SR leukemia
[50] = test system: HCT-116 colon
[51] = test system: HT29 colon
[52] = test system: LOX IMVI melanoma
[53] = test system: OVCAR-8 ovarian
[54] = test system: HOP-62 NSCLC
[55] = test system: MALME-3M melanoma
[56] = test system: RXF 393 renal
[57] = test system: UACC-257 melanoma
[58] = test system: XF 498 CNS
[59] = test system: SNB-78 CNS

N#CC(N)=Nc1ccccc1
TGI [1]: > 100 µM
TGI [2]: > 100 µM
TGI [3]: > 100 µM
TGI [4]: > 100 µM
TGI [5]: > 100 µM
TGI [6]: > 100 µM
TGI [7]: > 100 µM
TGI [8]: > 100 µM
TGI [9]: > 100 µM
TGI [10]: > 100 µM
TGI [11]: > 100 µM
TGI [12]: > 100 µM
TGI [13]: > 100 µM
TGI [14]: > 100 µM
TGI [15]: > 100 µM
TGI [16]: > 100 µM
TGI [17]: > 100 µM
TGI [18]: > 100 µM
TGI [19]: > 100 µM
TGI [20]: > 100 µM
TGI [21]: > 100 µM
TGI [22]: > 100 µM
TGI [23]: > 100 µM
TGI [24]: > 100 µM
TGI [25]: > 100 µM
TGI [26]: > 100 µM
TGI [27]: > 100 µM
TGI [28]: > 100 µM
TGI [29]: > 100 µM
TGI [30]: > 100 µM
TGI [31]: > 100 µM
TGI [32]: > 100 µM
TGI [33]: > 100 µM
TGI [34]: > 100 µM
TGI [35]: > 100 µM
TGI [36]: > 100 µM
TGI [37]: > 100 µM
TGI [38]: > 100 µM
TGI [39]: > 100 µM
TGI [40]: > 100 µM
TGI [41]: > 100 µM
TGI [42]: 31.1 µM
TGI [43]: > 100 µM
TGI [44]: > 100 µM
TGI [45]: > 100 µM
TGI [46]: > 100 µM
TGI [47]: > 100 µM
TGI [48]: > 100 µM
TGI [49]: > 100 µM
TGI [50]: > 100 µM
TGI [51]: > 100 µM
TGI [52]: > 100 µM
TGI [53]: > 100 µM
TGI [54]: > 100 µM
TGI [55]: > 100 µM

C/C=C/C(C#N)O[Si](C)(C)C (stereo not given)
TGI [1]: > 100 µM
TGI [2]: > 100 µM
TGI [4]: > 100 µM
TGI [5]: > 100 µM
TGI [6]: > 100 µM
TGI [8]: > 100 µM
TGI [9]: > 100 µM
TGI [10]: > 100 µM
TGI [11]: > 100 µM
TGI [12]: > 100 µM
TGI [13]: > 100 µM
TGI [14]: > 100 µM
TGI [16]: > 100 µM
TGI [17]: > 100 µM
TGI [18]: > 100 µM
TGI [19]: > 100 µM
TGI [20]: > 100 µM
TGI [21]: > 100 µM
TGI [22]: > 100 µM
TGI [23]: > 100 µM
TGI [56]: > 100 µM
TGI [57]: > 100 µM
TGI [24]: > 100 µM
TGI [25]: > 100 µM
TGI [26]: > 100 µM
TGI [27]: > 100 µM
TGI [58]: > 100 µM
TGI [28]: > 100 µM
TGI [29]: > 100 µM
TGI [30]: > 100 µM
TGI [31]: > 100 µM
TGI [32]: > 100 µM
TGI [33]: > 100 µM
TGI [59]: > 100 µM
TGI [34]: > 100 µM
TGI [35]: > 100 µM
TGI [36]: > 100 µM
TGI [37]: > 100 µM
TGI [39]: > 100 µM
TGI [40]: > 100 µM
TGI [41]: > 100 µM
TGI [42]: > 100 µM
TGI [43]: > 100 µM
TGI [44]: > 100 µM
TGI [45]: > 100 µM
TGI [46]: > 100 µM
TGI [47]: > 100 µM
TGI [48]: > 100 µM
TGI [50]: > 100 µM
TGI [51]: > 100 µM
TGI [53]: > 100 µM
TGI [54]: > 100 µM
TGI [55]: > 100 µM

O=C1Nc2ccccc2C1(O)C/C(=N/O)c1ccc2ccccc2c1 (stereo not given)
TGI [1]: > 100 µM
TGI [2]: > 100 µM
TGI [3]: > 100 µM
TGI [4]: > 100 µM
TGI [5]: > 100 µM
TGI [6]: > 100 µM
TGI [7]: > 100 µM
TGI [9]: > 100 µM
TGI [10]: > 100 µM
TGI [11]: > 100 µM
TGI [12]: > 100 µM
TGI [13]: > 100 µM
TGI [14]: > 100 µM
TGI [15]: > 100 µM
TGI [16]: > 100 µM
TGI [17]: > 100 µM
TGI [18]: > 100 µM
TGI [19]: > 100 µM
TGI [20]: > 100 µM
TGI [22]: > 100 µM
TGI [23]: > 100 µM
TGI [56]: > 100 µM
TGI [57]: > 100 µM
TGI [24]: > 100 µM
TGI [25]: > 100 µM
TGI [26]: > 100 µM
TGI [27]: > 100 µM
TGI [58]: > 100 µM
TGI [28]: > 100 µM
TGI [29]: > 100 µM
TGI [30]: > 100 µM
TGI [31]: > 100 µM
TGI [32]: > 100 µM
TGI [59]: > 100 µM
TGI [34]: > 100 µM
TGI [35]: > 100 µM
TGI [36]: > 100 µM
TGI [37]: > 100 µM
TGI [38]: > 100 µM
TGI [40]: > 100 µM
TGI [41]: > 100 µM
TGI [42]: > 100 µM
TGI [43]: > 100 µM
TGI [46]: > 100 µM
TGI [47]: > 100 µM
TGI [48]: > 100 µM
TGI [50]: > 100 µM
TGI [51]: > 100 µM
TGI [52]: 81.9 µM
TGI [53]: > 100 µM
TGI [54]: > 100 µM
TGI [55]: > 100 µM
